Measured values reported in US20250367283A1, “MEVALONATE PATHWAY INHIBITOR AS HIGHLY-EFFICIENT VACCINE ADJUVANT” (Tsinghua University, priority 2015, published 2025).

Legend:
[1] = test system: Plasmodium falciparum 3D7; test: Test of plasmodium activity (SYBR-GREEN1); format: cell-based; settings: infected erythrocytes, 72 hours; read-out: Malaria (IC50/μM)
Protocol: Plasmodium falciparum 3D7 was cultured with […] medium mixed with 10% human O-type blood serum and 25 mM HEPES. The cultivation process was maintained in a carbon dioxide incubator under 5% carbon dioxide. In vitro drug testing experiments were performed on a 96-well plate. The test drug was dissolved in PBS and pre-diluted with complete medium. Infected erythrocytes were cultured in triplicate for 72 hours in 3-fold serial dilutions of drug. Then an equal amount of SYBR-GREEN1 was added to each well. The detection was then performed at 485 nm for excitation light and 538 nm for emitted light. […] ORIGIN 8.0 software was used to plot and fit.

MDA-MB-231 cells = test: MDA-MB-231 proliferation MTT test; format: cell-based, human; settings: 72 hours
Protocol: • Drug dissolution: […] The prepared bisphosphonate stock solution was diluted with DMEM complete medium. The maximum concentration was 1 mM. The dilution was performed serially in a ratio of 1:3.2 with a total of 11 concentration gradients; a. MDA-MB-231 cells were digested the day before. Centrifugation was performed at 1000 rmp for 3 min. The cells were counted. The cells were seeded into a 96-well plate at 3000 cells/well in a volume of 100 μl per well and cultured for 14-16 h. It should be noted that the cell count should be accurate, and the amount of cells seeded per well should be consistent. The cell suspension can be gently shaken in the intermittence of plating, or a row of cells were plated and the cell suspension was pipetted gently with a pipette. The speed of pipetting into the 96-well plate with a pipette should not be too fast or too slow, in order to avoid uneven distribution of cells in the plate, affecting the experiments; the wells at the fringe of the 96-well plate will evaporate slightly faster and the concentration of the solution will change slightly faster. Under normal situation, the central 60 wells should be selected for stimulation. Also, the pipetted liquid should be prevented from creating bubbles. b. After the cells had adhered, the liquid in the 96-well plate was pipetted out and discarded. […] c. 72 hours after the action of drug, the prepared MTT solution (immediately before use, a certain amount of MTT powder was weighed and dissolved in PBS at 5 mg/ml, under dark, filter with 0.22 filter membrane) was added directly to each well with 20 μl per well and continued to culture for 4 hours; d. The filter paper (which can be replaced by an absorbent paper) was laid, and the plate was inverted gently (be careful to prevent the crystal in the well from dropping). After the liquid in the wells was removed, 150 μl of DMSO was added to dissolve the crystals, and the mixture was shaken thoroughly with a shaker for a period of time just to dissolve the crystals. The absorbance (OD value) of each well was measured at 570 nm with ELIASA. The mean value of blank control was calculated as OD Blank. OD value for each well=OD measured-OD Blank. ODNT mean value was calculated. […] Mean and standard error were then calculated. The mean and standard error of each group of drug concentration (uM) and corresponding drug inhibition rate were fitted by Graph Prism software to obtain the IC50 of the drug.

anti-OVA serum antibody = test: OVA immunization with bisphosphonates (Example 15), serum antibody titer; format: in vivo, mice; settings: 100 μg, intramuscular, 14 days
Protocol: During the immunization, the antigen we used was ovalbumin (OVA). Mice were c57bl/6 female mice at the age of 8 weeks. OVA was formulated at a concentration of 1 mg/ml and bisphosphonate concentration was 1 mg/ml. OVA and bisphosphonates were mixed at a ratio of 1:1 at the time of immunization. Mice were injected intramuscularly with […]. 100 μg of OVA and 100 μg of bisphosphonate per mouse. 14 days after immunization, 100 μl of orbital blood was taken from each mouse.
The whole blood which had been obtained was placed in a 4° C. freezer overnight. The next day, the whole blood at 4° C. was centrifuged at a speed of 6000 rpm at a temperature of 4° C. for 5 minutes. After the centrifugation, the upper serum was carefully taken out and centrifuged again at a speed of 6000 rpm at a temperature of 4° C. for 5 minutes. The upper serum was taken again. Serum was frozen and stored at-20° C. and thawed when tested.
1. Coating: antigen OVA was diluted to a protein content of 2 μg/ml with 0.05M pH 9.6 carbonate coating buffer. Each reaction well of a polystyrene plate was coated with 50 μl of the solution overnight at 4° C. or 2 h at 37° C. […]
7. On an ELISA detector, the OD value was read at 490 nm. Titers of serum antibody were calculated. Serum dilutions were calculated as titers of serum antibody based on an OD value greater than or equal to 1.5 times of the reading of the negative control well.

PR8 influenza virus = PR8 influenza virus challenge after HA1 immunization; format: in vivo, mice; settings: 20 micrograms adjuvant with 5 micrograms HA1, intramuscular
Protocol: Method: 5 micrograms of hemagglutinin protein (HA1) in the PR8 influenza virus was added to phosphate buffer, 20 micrograms of simvastatin, 20 micrograms of TH-Z80, 20 micrograms of TH-Z93 and 20 micrograms of TH-Z145, respectively. And mice were injected intramuscularly for immunization on day 0, day 14 and day 21. Nasal mucosa of mice was inoculated with PR8 virus on day 28. And then the weight of the mice was weighed daily and the death of the mice was observed.

With `CCCCCCOc1ccc2c(c1)ncn2CC(O)(P(=O)(O)O)P(=O)(O)O` [TH-Z80] the IC50 [1] was 1.76 µM, the IC50 (MDA-MB-231 cells) was 75.5 µM and the “antibody titers vs conventional bisphosphonates” value (anti-OVA serum antibody) was “higher titers of antibodies than conventional bisphosphonates”. The “body weight and death after PR8 virus inoculation” value (“body weight and death” below) (PR8 influenza virus) was “did not lose weight nor died”.

In the case of `CCCCCCCCOc1ccc2c(c1)ncn2CC(O)(P(=O)(O)O)P(=O)(O)O` [TH-Z81], the IC50 [1] is reported as 1.95 µM, the IC50 (MDA-MB-231 cells) is reported as 59.6 µM and the “adjuvant effect by carbon chain length of the side chain” value (anti-OVA serum antibody) is reported as “strongest effect as an adjuvant”.

With `CCCCCCOc1ccnc(NC(P(=O)(O)O)P(=O)(O)O)c1` [TH-Z93, (((4-(hexyloxy)pyridin-2-yl)amino)methylene)bisphosphonic acid] the “body weight and death” value (PR8 influenza virus) was “did not lose weight nor died”.

`CCCCCCCOc1ccc2c(c1)ncn2CC(O)(P(=O)(O)O)P(=O)(O)O` [TH-Z152] was tested, and the IC50 [1] was 1.21 µM and the IC50 (MDA-MB-231 cells) was 428 µM.

With `CCCCCCCCCOc1ccc2c(c1)ncn2CC(O)(P(=O)(O)O)P(=O)(O)O` [TH-Z153] the IC50 [1] was 1.28 µM and the IC50 (MDA-MB-231 cells) was 234 µM.

For `CCC(C)(C)C(=O)O[C@H]1C[C@@H](C)C=C2C=C[C@H](C)[C@H](CC[C@@H]3C[C@@H](O)CC(=O)O3)[C@H]21` [simvastatin, reference compound], the “body weight and death” value (PR8 influenza virus) was “did not lose weight nor died”.

For “(2-(3-(octyloxy)phenyl)ethane-1,1-diyl)bisphosphonic acid [TH-Z145]”, the “body weight and death” value (PR8 influenza virus) was “did not lose weight nor died”.
